According to patent US20100310665A1, “BACTERIOSTATIC OR BACTERIOCIDAL COMPOSITIONS AND METHODS” (Revalesio Corporation, priority 2007, published 2010):

Test system: Methicillin-Resistant Staphylococcus Aureus (MRSA)
Assay: MRSA bacteriocidal effects, plates with no growth
Assay type: cell-based
Design: concentration or dose not given beside the values
Conditions: fluids in combination with oxacillin

Question: How did the “Percentage of plates with no growth at indicated time” value (shortened to “Percentage of plates with no growth”) (0 min) turn out when `Cc1onc(-c2ccccc2)c1C(=O)N[C@@H]1C(=O)N2[C@@H]1SC(C)(C)[C@@H]2C(=O)O` [Drug, oxacillin] was run?
Answer: Its value is 16.67%.

Question: What about the “Percentage of plates with no growth” value (30 min) of the same compound?
Answer: The value was 0.00%.

Question: What about the “Percentage of plates with no growth” value (120 min) of the same compound?
Answer: The value was 0.00%.

Question: What about the “Percentage of plates with no growth” value (240 min) of the same compound?
Answer: The value was 0.00%.

Question: What about the “Percentage of plates with no growth” value (480 min) of the same compound?
Answer: The value was 0.00%.

Question: And the “Percentage of plates with no growth” value (1080 min)?
Answer: Its value is 0.00%.

Question: And the “Percentage of plates with no growth” value (1440 min)?
Answer: Its value is 0.00%.
